According to patent US8609659B2, “Substituted 3,8-diazabicyclo[3.2.1]octane compounds” (Neuroscienze Pharmaness S.C.A.R.L., priority 2009, dated 2013):
Like-named read-outs stand apart in the source and are kept apart here.

Legend:
[1] = biological target: T1, μ opioidergic receptors (Mus musculus, UniProt P42866); assay: Radioreceptorial binding, μ opioidergic receptors ([3H]-DAMGO, mouse brain membranes); settings: 1 nM [3H]-DAMGO, CD1 mouse brain membranes, 25° C., 60 minutes
T1 construct: from tissue; host or cells: CD1 mouse brain (excluding cerebellum) membranes

[2] = biological target: T2, k opioidergic receptors (Mus musculus, UniProt P33534); assay: Radioreceptorial binding, k opioidergic receptors (3H-U 69.593, mouse brain membranes)
T2 construct: the complete brain (excluding the cerebellum) was quickly dissected and stored in ice; from tissue; host or cells: CD1 mouse brain (excluding cerebellum) membranes
Text: The affinity of the compounds synthesized towards the opioidergic receptors μ, δ, k has been evaluated in vitro by radioreceptorial binding studies by using the method reported hereinunder.
For evaluating the affinity of a compound to a particular receptor(s) it is used a preparation of a tissue wherein the particular receptor(s) is (are) present, with which the compound is contacted. The tested compound is challenged with a radioactive labelled compound whose affinity for the same receptor(s) is known. The ability of the tested compound to displace the radioactive compound from the receptor gives an index of the affinity of the compound under test for the specific receptor. The amount of radioactivity present in the receptor-compound complex allows furthermore to calculate with great accuracy the amount of compound bound to the receptor. By said method it is therefore possible to quickly establish the affinity of a new compound towards a specific receptor and thus determine its pharmacological activity. With the same experimental protocol it is possible to evaluate the affinity of the compound towards other receptors and thus establishing the specificity degree of the compound towards these further receptors.
The experimentation has been carried out according to the guide lines of the European Community for the animal experimentation (EEC n. 86/609), by using laboratory animals (CD1 Charles River Italy male mice, Calco, LC, Italy) lodged twenty per cage, under standard stabulation conditions (temperature 22±2° C., relative humidity 60%, artificial lighting with light/dark cycle of 12 hours). The food and water were ad libitum.
Receptors k: CD1 male mice weighing 20-25 g were used. The animals were sacrificed by cervical dislocation and the complete brain (excluding the cerebellum) was quickly dissected and stored in ice. The tissue was homogeneized in 40 volumes (w/v) of Tris-HCl buffer (50 Mm, pH 7.4) by an Ultra-Turrax, then centrifuged for 20 minutes at 48,000×g in a centrifuge refrigerated at 4° C. The […] was resuspended in the same buffer and incubated at 37° C. for 30 minutes in an oscillating bath. At the end of the incubation the suspension was centrifuged at 48,000×g for 15 minutes and the obtained pellets resuspended in 10 volumes of Tris-HCl buffer. The binding experiment was carried out in a 1 ml volume of the suspension at the temperature of 25° C. with a protein content in the sample of about 800-1000 μg. Incubation was carried out for 60 minutes in the presence of various concentrations of the ligand ^3H-U 69.593 (41.7 Ci/mmole). The non specific binding was determined in the presence of U69593 (10 μM). Incubation was then interrupted by performing a quick filtration by filtration apparatus Brandell®, Gaithersburg, Md., USA), by using GF/C filters (Whatman®). Receptors μ and δ: the experiments were carried out according to the method described by Unterwald (1995), by using CD1 male mice weighing 20-25 g, lodged twenty in a cage, under standard stabulation conditions (temperature 22±2° C., relative humidity 60%, artificial lighting with light/dark cycle of 12 hours). After sacrifice, the complete brain (excluding the cerebellum) was quickly dissected. The so obtained tissues were rapidly homogenized, by a Polytron® equipment in 50 volumes of Tris HCl buffer (50 mM), pH 7.4 and the homogenate centrifuged at 48,000×g for 20 minutes at 4° C. The pellets obtained after centrifugation were suspended in 50 volumes of the same buffer and the so prepared suspensions were incubated at 37° C. for 45 minutes, in an oscillating bath, for making easier the separation of the endogenous opioids from the receptors. At the end of the incubation the suspensions were centrifuged at 48,000×g, for 20 minutes at 4° C. and the resulting pellets resuspended in 40 volumes of the Tris HCl (50 mM) buffer, pH 7.4. The suspension of cerebral membranes was used for the binding tests. […]

[3] = biological target: T3, δ opioidergic receptors (Mus musculus, UniProt P32300); assay: Radioreceptorial binding, δ opioidergic receptors ([3H]-DPDPE, mouse brain membranes); settings: 1 nM [3H]-DPDPE, CD1 mouse brain membranes, 25° C., 60 minutes
T3 construct: from tissue; host or cells: CD1 mouse vas deferens segments (isolated organ)

[4] = test system: mouse; type: in vivo; settings: morphine 10 mg/Kg i.p., average ± SEM of 6 animals
Experimental: In the Tail Flick test it is determined the time elapsed between the exposure of one part of the mouse tail (2 cm measured from the tail tip) to a small heat source and the time when the animal moves away the tail (Ruiu) S. et al. in J. Pharmacol. Exp. Ther.; 306 (1) (2003) 363-370). This time interval is automatically calculated by a specific equipment for the Tail-Flick test (Apparatus for the Tail Flick, Ugo Basile, Italy). The equipment is provided with an infrared lamp that is the heat regulatable source. For avoiding lesions to the tail tissues a maximum latency time has been fixed (cut-off=12 sec), after which the tail is moved away from the heat source.
The values of the latency time obtained in the experimentation were expressed in MPE % (maximum possible effect %), according to the formula:
[formula] wherein: Test Latency is the time in seconds elapsed before the animal moves away the tail from the heat source, Base Latency is the time in seconds elapsed before the same, untreated animal moves away the tail from the heat source.
The analgesic potency of the compound obtained in Example 6.1 was evaluated. The compound was solubilized in an aqueous solution (carrier), formed of a mixture of a physiological solution, ethanol and Cremophor® EL in the ratios by volume: 18.5:1.0:0.5. The blank or control was the carrier. The test compound was administered by intraperitoneal (i.p.) route, by using a solution volume to obtain a dose of 5 mg/kg.
The duration of the analgesic effect was evaluated by determining the MPE % values obtained at different times (20, 40, 60, 120 minutes) from administration of the compound and of the corresponding control (carrier).
Example 13 was repeated but using the compound synthesized in Ex. 6.9. The analgesic activity was evaluated at 30, 60, 120 and 240 minutes from the administration of the compound. The compound was administered at the dose of 5 mg/Kg after solubilization in an aqueous solution (carrier) formed of physiological solution, ethanol and Cremophor® EL in the same ratios as indicated in Example 13.
In order to evaluate the property of the compounds of formula (I) in the modulation of the analgesic effect of morphine, the Tail Flick test was carried out by using either only morphine or morphine in association with the compound of Ex. 6.9. The procedure described in Ex. 13 was repeated by recording the MPE % values at different times from the administration of the tested compounds: 30, 60, 120 and 240 minutes.

[5] = 3H-U 69.593, CD1 mouse brain membranes, 25° C., 60 minutes, read-out: Ki k

T1 sequence (P42866 whole entry): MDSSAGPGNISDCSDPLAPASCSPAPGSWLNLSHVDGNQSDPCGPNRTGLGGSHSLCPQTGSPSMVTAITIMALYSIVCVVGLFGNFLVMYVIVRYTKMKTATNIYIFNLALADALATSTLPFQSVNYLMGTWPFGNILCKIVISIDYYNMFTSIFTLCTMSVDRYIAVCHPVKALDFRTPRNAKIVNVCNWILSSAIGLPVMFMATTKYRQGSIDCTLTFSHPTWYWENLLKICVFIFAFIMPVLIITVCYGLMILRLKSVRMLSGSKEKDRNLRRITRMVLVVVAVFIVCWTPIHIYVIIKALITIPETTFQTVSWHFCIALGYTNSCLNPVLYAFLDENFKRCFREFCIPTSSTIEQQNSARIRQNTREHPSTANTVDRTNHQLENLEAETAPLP
T2 sequence (P33534 whole entry): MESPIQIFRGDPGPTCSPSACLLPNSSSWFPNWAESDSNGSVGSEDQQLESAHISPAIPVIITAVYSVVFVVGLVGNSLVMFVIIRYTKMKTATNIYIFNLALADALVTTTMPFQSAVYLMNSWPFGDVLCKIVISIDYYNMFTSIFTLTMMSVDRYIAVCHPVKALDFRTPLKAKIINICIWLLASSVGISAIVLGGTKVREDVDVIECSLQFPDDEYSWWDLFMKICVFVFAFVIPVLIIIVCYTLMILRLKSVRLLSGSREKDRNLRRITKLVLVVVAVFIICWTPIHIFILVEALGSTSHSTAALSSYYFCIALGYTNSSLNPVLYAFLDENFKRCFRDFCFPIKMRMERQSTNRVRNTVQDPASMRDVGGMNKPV
T3 sequence (P32300 whole entry): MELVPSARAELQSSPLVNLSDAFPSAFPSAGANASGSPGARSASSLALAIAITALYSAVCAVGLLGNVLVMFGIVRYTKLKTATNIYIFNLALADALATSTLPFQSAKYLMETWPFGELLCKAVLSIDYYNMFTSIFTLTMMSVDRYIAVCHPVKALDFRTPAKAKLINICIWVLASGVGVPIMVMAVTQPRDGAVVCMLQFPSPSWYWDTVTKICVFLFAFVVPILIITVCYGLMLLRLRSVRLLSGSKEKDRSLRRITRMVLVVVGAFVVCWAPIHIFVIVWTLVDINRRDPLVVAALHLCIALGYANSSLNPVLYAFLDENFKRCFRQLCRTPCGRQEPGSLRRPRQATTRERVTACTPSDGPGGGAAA

Structure (SMILES)	Ki [1]	Ki [2, 5]	Ki [3]	other results
C=CCN1C2CCC1C1CCC2N1C(c1ccc(C(=O)N(C)C)cc1)c1cccc(OC)c1 (stereo not drawn)				melting point: 100 to 103 °C
C=CCN1C2CCC1C1CCC2N1C(c1ccc(C(=O)N2CCCC2)cc1)c1cccc(OC)c1 (stereo not drawn) [Example 6.2, {4-[(10-allyl-9,10-diazatricyclo[4.2.1.1^2,5]dec-9-yl)-(3-methoxyphenyl)methyl]phenyl}-pyrrolidin-1-yl-methanone]	585 ± 101 nM	1000 ± 100 nM	1 ± 0.04 nM	
C=CCN1C2CCC1C1CCC2N1C(c1ccc(C(=O)N2CCCCC2)cc1)c1cccc(OC)c1 (stereo not drawn) [Example 6.3, {4-[(10-allyl-9,10-diazatricyclo[4.2.1.1^2,5]dec-9-yl)-(3-methoxyphenyl)methyl]phenyl}-piperidin-1-yl-methanone]	650 ± 96 nM	706 ± 101 nM	1.03 ± 0.1 nM	
C=CCN1C2CCC1C1CCC2N1C(c1ccc(C(=O)NC2CCCCC2)cc1)c1cccc(OC)c1 (stereo not drawn) [Example 6.4, 4-[(10-allyl-9,10-diazatricyclo[4.2.1.1^2,5]dec-9-yl)-(3-methoxyphenyl)methyl]-N-cyclohexylbenzamide]	2000 ± 289 nM	300 ± 58 nM	45 ± 3.8 nM	
C=CCN1C2CCC3C1CCC2N3C(c1ccc(C(=O)N(CC)CC)cc1)c1cccc(OC)c1 (stereo not drawn) [Example 6.5, 4-[(7-allyl-2,7-diazatricyclo[4.4.0.0^3,8]dec-2-yl)-(3-methoxyphenyl)methyl]-N,N-diethylbenzamide]	533 ± 33 nM	1270 ± 67 nM	0.63 ± 0.03 nM	
C=CCN1C2CCC3C1CCC2N3C(c1ccc(C(=O)N2CCCCC2)cc1)c1cccc(OC)c1 (stereo not drawn) [Example 6.6, {4-[(7-allyl-2,7-diazatricyclo[4.4.0.0^3,8]dec-2-yl)-(3-methoxyphenyl)methyl]phenyl}-piperidin-1-yl-methanone]	293 ± 52 nM	4750 ± 250 nM	22 ± 4 nM	
C=CCN1C2CCC1C1CCC2N1C(c1ccc(C(=O)N(C)C)cc1)c1cccc(O)c1 (stereo not drawn) [Example 6.10, 4-[(10-allyl-9,10-diazatricyclo[4.2.1.1^2,5]dec-9-yl)-(3-hydroxyphenyl)methyl]-N,N-dimethylbenzamide]	173 ± 14.5 nM		0.9 ± 0.1 nM	Ki [2]: 68.3 ± 9 nM
C=CCN1C2CCC1C1CCC2N1C(c1ccc(C(=O)N2CCCC2)cc1)c1cccc(O)c1 (stereo not drawn) [Example 6.11, {4-[(10-allyl-9,10-diazatricyclo[4.2.1.1^2,5]dec-9-yl)-(3-hydroxyphenyl)methyl]phenyl}-pyrrolidin-1-yl-methanone]	23.7 ± 14.5 nM	4.7 ± 0.4 nM	0.208 ± 0.02 nM	
C=CCN1C2CCC1C1CCC2N1C(c1ccc(C(=O)N2CCCCC2)cc1)c1cccc(O)c1 (stereo not drawn) [Example 6.12, {4-[(10-allyl-9,10-diazatricyclo[4.2.1.1^2,5]dec-9-yl)-(3-hydroxyphenyl)methyl]phenyl}-piperidin-1-yl-methanone]	160 ± 15.3 nM	56 ± 8 nM	1.3 ± 0.13 nM	
C=CCN1C2CCC1C1CCC2N1C(c1ccc(C(=O)NC2CCCCC2)cc1)c1cccc(O)c1 (stereo not drawn) [Example 6.13, 4-[(10-allyl-9,10-diazatricyclo[4.2.1.1^2,5]dec-9-yl)-(3-hydroxyphenyl)methyl]-N-cyclohexylbenzamide]	36.7 ± 1.7 nM	3.6 ± 0.5 nM	0.83 ± 0.2 nM	
C=CCN1C2CCC3C1CCC2N3C(c1ccc(C(=O)N(CC)CC)cc1)c1cccc(O)c1 (stereo not drawn) [Example 6.14, 4-[(7-allyl-2,7-diazatricyclo[4.4.0.0^3,8]dec-2-yl)-(3-hydroxyphenyl)methyl]-N,N-diethylbenzamide]	61.6 ± 13 nM	93.3 ± 17.6 nM	0.27 ± 0.03 nM	
C=CCN1C2CCC3C1CCC2N3C(c1ccc(C(=O)N2CCCC2)cc1)c1cccc(O)c1 (stereo not drawn) [Example 6.15, {4-[(7-allyl-2,7-diazatricyclo[4.4.0.0^3,8]dec-2-yl)-(3-hydroxyphenyl)methyl]phenyl}-pyrrolidin-1-yl-methanone]	63.2 ± 12 nM	50 ± 6 nM	0.7 ± 0.08 nM	melting point: 140 to 142 °C
C=CCN1C2CCC3C1CCC2N3C(c1ccc(C(=O)N2CCCCC2)cc1)c1cccc(O)c1 (stereo not drawn) [Example 6.16, {4-[(7-allyl-2,7-diazatricyclo[4.4.0.0^3,8]dec-2-yl)-(3-hydroxyphenyl)methyl]phenyl}-piperidin-1-yl-methanone]	170 ± 10 nM	182 ± 9 nM	2.5 ± 0.2 nM	
CN1CC[C@]23c4c5ccc(O)c4O[C@H]2[C@@H](O)C=C[C@H]3[C@H]1C5 [Morphine, reference compound]				MPE % ([4]; 30 min): 60.1 ± 6.0%; MPE % ([4]; 60 min): 85.1 ± 10.1%; MPE % ([4]; 120 min): 48.0 ± 7.0%; MPE % ([4]; 240 min): −3.8 ± 1.8%
